This assay deals with Bruton's tyrosine kinase (Btk) (Homo sapiens, UniProt Q06187). The assay is described as follows: IC50. In kind it is biochemical.

pIC50: −log10 of the molar value.

Sequence of Bruton's tyrosine kinase (Btk) (Q06187 2-659): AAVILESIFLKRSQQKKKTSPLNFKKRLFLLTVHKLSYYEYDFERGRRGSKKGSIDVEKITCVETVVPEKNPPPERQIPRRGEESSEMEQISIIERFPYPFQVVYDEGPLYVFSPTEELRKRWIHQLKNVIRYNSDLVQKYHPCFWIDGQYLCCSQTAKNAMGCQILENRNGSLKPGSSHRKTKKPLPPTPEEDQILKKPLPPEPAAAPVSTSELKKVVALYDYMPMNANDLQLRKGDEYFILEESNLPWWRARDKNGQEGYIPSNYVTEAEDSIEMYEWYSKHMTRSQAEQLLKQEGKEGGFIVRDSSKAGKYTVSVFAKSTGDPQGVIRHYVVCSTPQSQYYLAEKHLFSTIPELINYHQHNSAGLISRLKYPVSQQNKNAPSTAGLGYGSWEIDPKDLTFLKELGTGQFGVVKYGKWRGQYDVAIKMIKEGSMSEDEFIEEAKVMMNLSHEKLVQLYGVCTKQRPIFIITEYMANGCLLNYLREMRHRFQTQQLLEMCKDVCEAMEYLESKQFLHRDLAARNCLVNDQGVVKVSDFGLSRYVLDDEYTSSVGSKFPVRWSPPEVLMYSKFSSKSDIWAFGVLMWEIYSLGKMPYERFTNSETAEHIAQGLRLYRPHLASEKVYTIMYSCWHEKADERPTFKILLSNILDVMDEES

A word on the pIC50: it is the IC50 on a negative log10 scale, so that one unit is a factor of ten. A higher pIC50 goes with a small IC50. AVL-292-SiR-COOH had a negative-log IC50 (pIC50) of 6.55.

These data come from publication PMC4772718 (Bioconjugate chemistry, 2015).
